Measurements reported in PMC9966414, “Pharmacological Profiling of KATP Channel Modulators: An Outlook for New Treatment Opportunities for Migraine” (Pharmaceuticals, 2023).

What was measured:
Kir6.1/SUR2B = molecular target: T1, Kir6.1/SUR2B (Homo sapiens, UniProt O60706+Q15842); assay: thallium-flux fluorescence assay (FLIPR, BTC/AM); format: cell-based
T1 construct: gene KCNJ8; full-length human subunits co-expressed stably in HEK293 cells; GenScript vectors; four Kir6.1 plus four SUR2B
From the text: thallium-flux fluorescence assay (FLIPR, BTC/AM) on Kir6.1/SUR2B

Kir6.2/SUR2A = molecular target: T2, Kir6.2/SUR2A (Homo sapiens, UniProt O60706+Q14654); assay: thallium-flux fluorescence assay (FLIPR, BTC/AM); format: cell-based
T2 construct: gene KCNJ11; full-length human subunits co-expressed stably in HEK293 cells; GenScript vectors; four Kir6.2 plus four SUR2A
From the text: (§1) thallium-flux fluorescence assay (FLIPR, BTC/AM) on Kir6.2/SUR2A

Kir6.2/SUR1 = molecular target: T3, Kir6.2/SUR1 (Homo sapiens, UniProt Q09428+Q14654); assay: thallium-flux fluorescence assay (FLIPR, BTC/AM); format: cell-based
T3 construct: gene KCNJ11; full-length human subunits co-expressed stably in HEK293 cells; GenScript vectors; four Kir6.2 plus four SUR1
From the text: thallium-flux fluorescence assay (FLIPR, BTC/AM) on Kir6.2/SUR1

[1] = thallium-flux fluorescence assay (FLIPR, BTC/AM); format: cell-based, Homo sapiens; conditions: read-out: Kir6.2/SUR1 / IC50
[2] = thallium-flux fluorescence assay (FLIPR, BTC/AM); format: cell-based, Homo sapiens; conditions: read-out: Kir6.1/SUR2B / EC50
From the text: as §1

T3 sequence (Q14654 whole entry): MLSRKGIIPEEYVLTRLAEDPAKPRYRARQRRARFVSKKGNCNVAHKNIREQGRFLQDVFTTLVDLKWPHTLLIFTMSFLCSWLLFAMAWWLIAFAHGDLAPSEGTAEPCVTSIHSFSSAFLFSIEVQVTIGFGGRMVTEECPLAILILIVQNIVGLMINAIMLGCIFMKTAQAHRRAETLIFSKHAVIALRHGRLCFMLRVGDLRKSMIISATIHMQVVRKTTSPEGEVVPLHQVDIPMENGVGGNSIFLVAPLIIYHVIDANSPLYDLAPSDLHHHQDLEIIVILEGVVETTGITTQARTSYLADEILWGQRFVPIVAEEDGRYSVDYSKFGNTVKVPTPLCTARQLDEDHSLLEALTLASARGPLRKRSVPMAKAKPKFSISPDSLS
T3 sequence (Q09428 whole entry): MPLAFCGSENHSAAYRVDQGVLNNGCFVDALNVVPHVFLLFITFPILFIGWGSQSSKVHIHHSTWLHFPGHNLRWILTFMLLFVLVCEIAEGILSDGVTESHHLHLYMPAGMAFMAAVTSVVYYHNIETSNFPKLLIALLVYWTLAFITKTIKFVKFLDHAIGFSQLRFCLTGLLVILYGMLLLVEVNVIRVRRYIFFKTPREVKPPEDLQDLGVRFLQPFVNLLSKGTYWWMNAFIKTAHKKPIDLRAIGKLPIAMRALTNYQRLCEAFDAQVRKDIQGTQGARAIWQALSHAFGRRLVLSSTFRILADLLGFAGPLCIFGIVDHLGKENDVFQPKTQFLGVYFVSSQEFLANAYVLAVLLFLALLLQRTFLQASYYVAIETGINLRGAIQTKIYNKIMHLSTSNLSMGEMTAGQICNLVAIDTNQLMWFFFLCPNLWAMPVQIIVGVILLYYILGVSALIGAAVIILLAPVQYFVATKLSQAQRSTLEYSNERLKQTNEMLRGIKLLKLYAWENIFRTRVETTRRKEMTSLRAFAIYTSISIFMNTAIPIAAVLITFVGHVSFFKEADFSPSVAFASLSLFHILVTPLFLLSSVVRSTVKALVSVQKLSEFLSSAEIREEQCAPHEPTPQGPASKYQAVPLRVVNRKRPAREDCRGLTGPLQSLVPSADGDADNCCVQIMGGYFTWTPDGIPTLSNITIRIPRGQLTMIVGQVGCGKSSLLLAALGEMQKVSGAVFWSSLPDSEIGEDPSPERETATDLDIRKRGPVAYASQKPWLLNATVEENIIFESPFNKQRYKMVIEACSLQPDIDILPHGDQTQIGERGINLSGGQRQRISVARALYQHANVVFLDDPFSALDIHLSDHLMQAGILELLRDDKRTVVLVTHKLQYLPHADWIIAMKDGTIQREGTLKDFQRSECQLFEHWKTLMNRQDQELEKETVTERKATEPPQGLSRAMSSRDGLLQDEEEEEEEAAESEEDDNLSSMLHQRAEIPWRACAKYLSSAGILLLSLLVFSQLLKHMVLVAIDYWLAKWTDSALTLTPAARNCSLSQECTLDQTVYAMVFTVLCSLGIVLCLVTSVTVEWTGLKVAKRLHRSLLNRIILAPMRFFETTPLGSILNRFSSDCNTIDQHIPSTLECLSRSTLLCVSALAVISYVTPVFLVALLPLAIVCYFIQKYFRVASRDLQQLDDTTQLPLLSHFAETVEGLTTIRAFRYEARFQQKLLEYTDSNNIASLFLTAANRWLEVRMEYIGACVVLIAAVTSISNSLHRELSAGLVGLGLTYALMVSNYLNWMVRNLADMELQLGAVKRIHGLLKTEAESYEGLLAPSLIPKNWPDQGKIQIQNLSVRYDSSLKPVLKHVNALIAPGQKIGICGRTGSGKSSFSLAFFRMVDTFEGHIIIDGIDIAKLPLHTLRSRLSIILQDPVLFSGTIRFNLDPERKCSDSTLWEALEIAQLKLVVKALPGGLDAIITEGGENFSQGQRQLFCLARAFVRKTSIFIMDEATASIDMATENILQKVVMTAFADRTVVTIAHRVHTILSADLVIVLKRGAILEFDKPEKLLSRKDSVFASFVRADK
T2 sequence (Q14654 whole entry): as the sequence (Q14654 whole entry) above
T2 sequence (O60706 whole entry): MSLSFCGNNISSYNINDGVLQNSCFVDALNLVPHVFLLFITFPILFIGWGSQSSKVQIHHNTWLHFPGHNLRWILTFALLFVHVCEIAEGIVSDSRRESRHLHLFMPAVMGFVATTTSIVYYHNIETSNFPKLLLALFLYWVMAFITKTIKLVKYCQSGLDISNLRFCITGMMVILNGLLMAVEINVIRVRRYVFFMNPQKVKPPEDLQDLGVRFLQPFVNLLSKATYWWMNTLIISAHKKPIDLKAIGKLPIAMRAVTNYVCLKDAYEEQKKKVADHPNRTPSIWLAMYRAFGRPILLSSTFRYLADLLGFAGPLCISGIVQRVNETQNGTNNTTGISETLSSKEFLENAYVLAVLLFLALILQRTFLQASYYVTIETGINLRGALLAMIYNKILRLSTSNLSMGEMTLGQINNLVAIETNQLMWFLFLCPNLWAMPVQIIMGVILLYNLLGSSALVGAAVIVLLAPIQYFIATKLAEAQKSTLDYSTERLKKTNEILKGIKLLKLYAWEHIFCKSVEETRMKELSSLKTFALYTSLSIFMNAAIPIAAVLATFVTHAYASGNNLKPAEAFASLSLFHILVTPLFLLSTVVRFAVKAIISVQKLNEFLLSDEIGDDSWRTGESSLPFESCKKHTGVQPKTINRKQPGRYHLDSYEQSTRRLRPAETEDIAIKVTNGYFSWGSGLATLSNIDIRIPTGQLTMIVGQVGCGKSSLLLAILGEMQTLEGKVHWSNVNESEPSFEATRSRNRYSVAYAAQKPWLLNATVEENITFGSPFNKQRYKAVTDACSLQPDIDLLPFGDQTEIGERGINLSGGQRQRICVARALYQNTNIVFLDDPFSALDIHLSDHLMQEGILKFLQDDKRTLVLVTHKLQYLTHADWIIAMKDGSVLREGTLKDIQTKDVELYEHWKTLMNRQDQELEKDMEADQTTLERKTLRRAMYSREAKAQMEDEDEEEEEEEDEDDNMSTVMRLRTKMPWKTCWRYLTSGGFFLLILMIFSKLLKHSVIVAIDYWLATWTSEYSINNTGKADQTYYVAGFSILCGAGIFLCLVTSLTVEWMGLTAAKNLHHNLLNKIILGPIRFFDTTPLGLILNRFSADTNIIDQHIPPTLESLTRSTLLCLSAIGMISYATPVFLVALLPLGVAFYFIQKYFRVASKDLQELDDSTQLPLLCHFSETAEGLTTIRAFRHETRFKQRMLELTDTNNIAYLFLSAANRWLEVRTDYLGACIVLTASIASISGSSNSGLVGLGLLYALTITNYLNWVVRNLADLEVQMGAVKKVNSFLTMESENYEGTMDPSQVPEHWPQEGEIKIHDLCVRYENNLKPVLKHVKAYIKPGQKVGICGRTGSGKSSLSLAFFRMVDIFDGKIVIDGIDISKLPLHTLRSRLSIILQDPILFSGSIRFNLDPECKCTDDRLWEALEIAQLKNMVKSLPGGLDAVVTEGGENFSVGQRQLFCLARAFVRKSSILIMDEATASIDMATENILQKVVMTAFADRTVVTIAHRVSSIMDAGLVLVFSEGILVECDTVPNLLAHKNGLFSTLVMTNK

SMILES	EC50 (Kir6.1/SUR2B) [nM]	IC50 (Kir6.2/SUR2A) [nM]	IC50 (Kir6.2/SUR1) [nM]	IC50 (Kir6.1/SUR2B) [nM]	further results
CC1(NC2=NS(=O)(=O)c3sc(Cl)cc3N2)CC1 [NN414]	> 30000				
COc1ccc2c(c1)C(=O)N(CCc1ccc(S(=O)(=O)NC(=O)NC3CCCCC3)cc1)C(=O)C2(C)C [Gliquidone]		780 ± 580	6.9 ± 5	4500 ± 3600	
CN(CCOc1ccc(CC2SC(=O)NC2=O)cc1)c1ccccn1 (centres unmarked) [Rosiglitazone]			> 100000	8500 ± 4600	IC50 [1]: > 100000 nM
CC(N/C(=N\C#N)Nc1ccncc1)C(C)(C)C (centres unmarked) [Pinacidil]					EC50 (Kir6.2/SUR1): > 30000 nM
CCOc1cc(CC(=O)N[C@@H](CC(C)C)c2ccccc2N2CCCCC2)ccc1C(=O)O [Repaglinide]		0.94 ± 0.46	3.9 ± 1.4	1.1 ± 0.6	
Cc1ccc(S(=O)(=O)NC(=O)NN2CC3CCCC3C2)cc1 (centres unmarked) [Gliclazide]		55000 ± 22000	610 ± 450	24000 ± 11000	
CC(C)[C@H]1CC[C@H](C(=O)N[C@H](Cc2ccccc2)C(=O)O)CC1 [Nateglinide]		16000 ± 7300	44 ± 13	14000 ± 6700	
CC(=O)N(O)[C@@H]1c2cc(C#N)ccc2OC(C)(C)[C@H]1O [Y-26763]	75 ± 42				EC50 (Kir6.2/SUR2A): 1300 ± 970 nM; EC50 (Kir6.2/SUR1): 4100 ± 2100 nM
CCC1=C(C)CN(C(=O)NCCc2ccc(S(=O)(=O)NC(=O)N[C@H]3CC[C@H](C)CC3)cc2)C1=O [Glimepiride]		17 ± 9	2.3 ± 1.2	33 ± 23	
CCC(C)(C)NC(=NC#N)Nc1cccnc1 [P1075]	52 ± 24				EC50 (Kir6.2/SUR2A): 510 ± 270 nM; EC50 (Kir6.2/SUR1): > 30000 nM
COc1ccc(Cl)cc1C(=O)NCCc1ccc(S(=O)(=O)NC(=O)NC2CCCCC2)cc1 [Glibenclamide]		9.9 ± 4.1		21 ± 14	
CC1=NS(=O)(=O)c2cc(Cl)ccc2N1 [Diazoxide]	9700 ± 5700				EC50 (Kir6.2/SUR2A): > 100000 nM
CC(O)(C(=O)Nc1ccc(S(=O)(=O)c2ccccc2)cc1)C(F)(F)F (centres unmarked) [ZM226600]	150 ± 90				EC50 (Kir6.2/SUR2A): 2800 ± 2200 nM; EC50 (Kir6.2/SUR1): > 30000 nM
Cc1c(C)c2c(c(C)c1O)CCC(C)(COc1ccc(CC3SC(=O)NC3=O)cc1)O2 (centres unmarked) [Troglitazone]		30000 ± 16000	14000 ± 3100	10000 ± 6500	
CC1(C)Oc2ccc(C#N)cc2[C@H](N(Cc2ncc[nH]2)c2ccc(Cl)cc2)[C@H]1O [BMS-191095]	> 30000				EC50 [2]: > 30000 nM
C1CCC(/N=C(\NC23CC4CC(CC(C4)C2)C3)N2CCOCC2)CC1 [PNU-37883A]			> 100000	290 ± 210	IC50 [1]: > 100000 nM
CCCCNC(=O)NS(=O)(=O)c1ccc(C)cc1 [Tolbutamide]		71000 ± 12000	7500 ± 4100	41000 ± 11000	
O=C1CCCC2=C1[C@H](c1ccc(F)c(Br)c1)C1=C(CCS1(=O)=O)N2 [A-278637]	170 ± 89				EC50 (Kir6.2/SUR2A): 1600 ± 890 nM; EC50 (Kir6.2/SUR1): > 30000 nM
